From patent publication US20180153995A1, “USE OF ANTIMICROBIAL POLYMERS FOR RE-SENSITIZATION OF MICROORGANISMS UPON EMERGENCE OF RESISTANCE TO ANTI-MICROBIAL AGENTS” (Technion Research & Development Foundation Limited, priority 2008, published 2018)
Values joined by “and” are separate entries in the source; they are usually repeats but may differ in a detail not shown here. Equal values may be shown once. Read-outs that look alike come from different tables or passages of the source.

Legend:
[1] = tested on: E. coli K-12 efflux knockout mutant; type: cell-based, Escherichia coli; conditions: E. coli AG100A (efflux−)
Outline: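 Broth microdilution, inocula 10^5 bacteria/ml, 24 h at 37 °C. Growth read as OD620 against calibration standards.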

S. aureus 43300 [2] = assay: Antibiotic MIC by microdilution with or without sub-MIC polymer; type: cell-based, Staphylococcus aureus
Procedure: (§1) MICs were determined by microdilution susceptibility testing in 96-well plates (by Nunc) using inocula of 10^5 bacteria per ml. Cell populations were evaluated by optical density measurements at 620 nm and were calibrated against a set of standards. Hundred (100) μl of a bacterial suspension were added to 100 μl of culture medium (control) or to 100 μl of culture medium containing various polymer concentrations in 2-fold serial dilutions. Inhibition of proliferation was determined by optical density measurements at 620 nm after an incubation period of 24 hours at 37° C.
Table 8 below presents the MIC values of antibiotics in presence or absence of C12(5-ene)KKNC12KNH2 (SEQ ID NO: 2) at sub-MIC levels of the polymer, as measured for the S. aureus strains 43300 (ATCC), 15819 (clinical isolate), 15877 (clinical isolate) and 15852 (clinical isolate). MICs were determined by microdilution susceptibility testing in 96-well plates (Nunc) using inocula of 10^5 bacteria per ml. One hundred (100) μl of a bacterial suspension were added to 100 μl of culture medium (control) or to 100 μl of culture medium containing various antibiotic and C12(5-ene)KKNC12KNH2 (SEQ ID NO: 2) concentrations in 2-fold serial dilutions. Inhibition of proliferation was determined by optical density measurements at 620 nm after an incubation period of 24 hours at 37° C.
(§2) 100 μl of a bacterial suspension were added to 100 μl of culture medium (control) or to 100 μl of culture medium containing various antibiotic and C14(9-ene)KKNC12KNH2 (SEQ ID NO: 5) concentrations in 2-fold serial dilutions. Inhibition of proliferation was determined by optical density measurements at 620 nm after an incubation period of 24 hours at 37° C.

[3] = tested on: E. coli K-12 resistant wild type; type: cell-based, Escherichia coli; conditions: E. coli AG100 (w.t.)
MRSA 15903 = assay: microbe, parasite or virus in culture; type: cell-based, Staphylococcus aureus
Outline: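 Values are FIC indexes, summing each agent's MIC in combination divided by its MIC alone, for MRSA 15903. Interpretation: <0.5 clear re-sensitization, 0.5 to 4 marginal or none, >4 antagonistic.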

E. coli 14384 = assay: Antibiotic MIC by microdilution with or without sub-MIC polymer; type: cell-based, Escherichia coli
Outline: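 Optical density at 620 nm, calibrated against standards, measured growth inhibition after 24 hours at 37° C. Inocula were 10^5 bacteria per ml, and antibiotic was serially diluted 2-fold with or without […].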

S. aureus 15819 = assay: as above; type: cell-based, Staphylococcus aureus; conditions: S. aureus 15819
E. coli 16329 = type: cell-based, Escherichia coli
Procedure: as §1, §2

S. maltophila 748 = assay: Antibiotic MIC by microdilution with or without sub-MIC polymer; type: cell-based, Stenotrophomonas maltophila
S. aureus 15877 = assay: as above; type: cell-based, Staphylococcus aureus
E. coli 14182 = assay: as above; type: cell-based, Escherichia coli
S. aureus 43300 [4] = assay: as above; type: cell-based, Staphylococcus aureus; remark: listed apart in the source
[5] = polymer at ½ of its MIC (Table 16)
[6] = the OAK at ¼ of its MIC (Table 17)
[7] = the OAK at ½ of its MIC (Table 17)
[8] = +½ MIC (3.12 μM) C12(5-ene)KKNC12KNH2
[9] = +¼ MIC (1.6 μM) C12(5-ene)KKNC12KNH2
[10] = +¼ MIC (1.6 μM) C12K(KNC12K)3NH2
[11] = +½ MIC (3.12 μM) C12K(KNC12K)3NH2
[12] = +⅓ MIC (2.1 μM) C12(5-ene)KKNC12KNH2
[13] = +⅓ MIC (2.1 μM) C12K(KNC12K)3NH2

Cc1onc(-c2ccccc2)c1C(=O)N[C@@H]1C(=O)N2[C@@H]1SC(C)(C)[C@@H]2C(=O)O [Oxacillin, oxacillin]
2 µg/mL: Antibiotic MIC (S. aureus 15819; [9]) | Antibiotic MIC (S. aureus 15819; +½ MIC (3.12 μM) C12KKNC12KNH2) | Antibiotic MIC (S. aureus 15819; [12]) | Antibiotic MIC (S. aureus 15819; [13])
0.25 to 0.5 µg/mL: Antibiotic MIC (S. aureus 43300 [2]; +¼ MIC (1.6 μM) C14(9-ene)KKNC12KNH2) | Antibiotic MIC (S. aureus 43300 [4]; +¼ MIC (1.6 μM) C16(9-ene)KKNC12KNH2)
0.03 to 0.06 µg/mL: Antibiotic MIC (S. aureus 43300 [4]; +½ MIC (3.12 μM) C16(9-ene)KKNC12KNH2)
32 µg/mL: Antibiotic MIC (S. aureus 15877; [12])
16 µg/mL: Antibiotic MIC (S. aureus 15877; [8])
64 µg/mL: MIC (MRSA 15903; S. aureus CI-15903, +polymer (¼ MIC) C12(5-ene)KKNC12KNH2)
576 µM: MIC (MRSA 15903; Staphylococcus aureus, MRSA, read-out: MIC of oxacillin, MRSA 15903, oxacillin alone)
> 25 µM: concentration up to which oxacillin alone is inactive (MRSA 15903; MRSA 15903, oxacillin alone)
16 to 64 µg/mL: MIC, ⅓ + MIC OAK (MRSA 15903; MRSA 15903, with C12K(KNC10K)3NH2 (SEQ ID NO: 10) at ⅓ of its MIC)
1 µg/mL: Antibiotic MIC (S. aureus 15819; [8])
256 to 512 µg/mL: Antibiotic MIC (E. coli 14384; E. coli 14384, +½ MIC C12K(NC8K)5NH2)
4 µg/mL: MIC (MRSA 15903; S. aureus CI-15903, +polymer (⅓ MIC) C12(5-ene)KKNC12KNH2) | Antibiotic MIC (S. aureus 15819; [10]) | Antibiotic MIC (S. aureus 15819; no polymer (None), Table 8)
256 µg/mL: Antibiotic MIC in presence of the OAK, +¼ MIC [3, 6] | MIC (MRSA 15903; MRSA 15903, +¼ polymer MIC (1.6 μM) NC12(KNC12K)2NH2) | MIC (MRSA 15903; MRSA 15903, antibiotic alone) | MIC (MRSA 15903; S. aureus CI-15903, alone) | MIC (MRSA 15903; Staphylococcus aureus, MRSA, 24 h) | MIC (MRSA 15903; Staphylococcus aureus, MRSA, read-out: MIC of oxacillin) | Antibiotic MIC (S. maltophila 748; [11])
0.4 µM: MIC (MRSA 15903; Staphylococcus aureus, MRSA, read-out: MIC of oxacillin, MRSA 15903, + ½ MIC NC12(KNC12K)2NH2)
8 µg/mL: Antibiotic MIC (S. aureus 15819; +¼ MIC (1.6 μM) C12KKNC12KNH2) | Antibiotic MIC (S. aureus 15819; +⅓ MIC (2.1 μM) C12KKNC12KNH2) | Antibiotic MIC (S. aureus 15819; no polymer (None), Table 11) | Antibiotic MIC (S. aureus 15819; no polymer (None), Table 13)
0.06 µg/mL: Antibiotic MIC (S. aureus 43300 [2]; [8])
0.25 µg/mL: Antibiotic MIC in presence of C12K(NC8K)7NH2 (SEQ ID NO: 4), +½ MIC [1, 5] | Antibiotic MIC in presence of C12K(NC8K)7NH2 (SEQ ID NO: 4), +⅓ MIC ([1]; polymer at ⅓ of its MIC (Table 16)) | Antibiotic MIC in presence of the OAK, +½ MIC [1, 7] | Antibiotic MIC (S. aureus 43300 [2]; +½ MIC (3.12 μM) C14(9-ene)KKNC12KNH2) | Antibiotic MIC (S. aureus 43300 [2]; +⅓ MIC (2.1 μM) C14(9-ene)KKNC12KNH2) | MIC (MRSA 15903; S. aureus CI-15903, +polymer (½ MIC) C12(5-ene)KKNC12KNH2) | Antibiotic MIC (S. aureus 43300 [4]; +½ MIC (3.12 μM) C12K(KNC12K)2NH2) | Antibiotic MIC (S. aureus 43300 [4]; +½ MIC (3.12 μM) C12KKNC12KNH2) | Antibiotic MIC (S. aureus 43300 [4]; +⅓ MIC (2.1 μM) C12K(KNC12K)2NH2)
>512 µg/mL: Antibiotic MIC, None (E. coli 14384; E. coli 14384, antibiotic alone (Table 15)) | Antibiotic MIC (E. coli 14384; E. coli 14384, no polymer (None), Table 9) | Antibiotic MIC (E. coli 14384; E. coli 14384, no polymer (None), Table 14) | Antibiotic MIC in presence of C12K(NC8K)7NH2 (SEQ ID NO: 4), +¼ MIC (E. coli 14384; E. coli 14384, polymer at ¼ of its MIC) | Antibiotic MIC in presence of C12K(NC8K)7NH2 (SEQ ID NO: 4), +½ MIC (E. coli 14384; E. coli 14384, polymer at ½ of its MIC) | Antibiotic MIC in presence of C12K(NC8K)7NH2 (SEQ ID NO: 4), +⅓ MIC (E. coli 14384; E. coli 14384, polymer at ⅓ of its MIC) | Antibiotic MIC (E. coli 16329) | Antibiotic MIC (E. coli 16329; E. coli 16329, no polymer (None), Table 10) | Antibiotic MIC (E. coli 16329; E. coli U-16329, +¼ MIC C12K(NC8K)5NH2) | Antibiotic MIC (E. coli 16329; E. coli U-16329, +½ MIC C12K(NC8K)5NH2) | Antibiotic MIC (E. coli 16329; E. coli U-16329, +⅓ MIC C12K(NC8K)5NH2) | Antibiotic MIC, None (E. coli 16329; E. coli U-16329, antibiotic alone (Table 15)) | Antibiotic MIC (E. coli 16329; E. coli U-16329, no polymer (None), Table 14) | Antibiotic MIC in presence of C12K(NC8K)7NH2 (SEQ ID NO: 4), +¼ MIC (E. coli 16329; E. coli U-16329, polymer at ¼ of its MIC) | Antibiotic MIC in presence of C12K(NC8K)7NH2 (SEQ ID NO: 4), +⅓ MIC (E. coli 16329; E. coli U-16329, polymer at ⅓ of its MIC) | Antibiotic MIC (E. coli 14182; +½ MIC C12K(NC8K)5NH2) | Antibiotic MIC, None (E. coli 14182; antibiotic alone (Table 15)) | Antibiotic MIC (E. coli 14182; no polymer (None), Table 14) | Antibiotic MIC in presence of C12K(NC8K)7NH2 (SEQ ID NO: 4), +¼ MIC (E. coli 14182; polymer at ¼ of its MIC) | Antibiotic MIC in presence of C12K(NC8K)7NH2 (SEQ ID NO: 4), +½ MIC (E. coli 14182; polymer at ½ of its MIC) | Antibiotic MIC in presence of C12K(NC8K)7NH2 (SEQ ID NO: 4), +⅓ MIC (E. coli 14182; polymer at ⅓ of its MIC)
0.5 µg/mL: Antibiotic MIC in presence of the OAK, +¼ MIC [1, 6] | Antibiotic MIC in presence of the OAK, +⅓ MIC ([1]; the OAK at ⅓ of its MIC (Table 17)) | Antibiotic MIC (S. aureus 43300 [2]; no polymer (None), Table 9) | Antibiotic MIC (S. aureus 43300 [2]; no polymer (None), Table 11) | Antibiotic MIC (S. aureus 43300 [2]; no polymer (None), Table 12) | MIC, ½ + MIC OAK (MRSA 15903; MRSA 15903, with C12K(KNC10K)3NH2 (SEQ ID NO: 10) at ½ of its MIC) | Antibiotic MIC (S. aureus 43300 [4]; +¼ MIC (1.6 μM) C12KKNC12KNH2)
0.8 µM: MIC (MRSA 15903; Staphylococcus aureus, MRSA, read-out: MIC of oxacillin, MRSA 15903, + ⅓ MIC NC12(KNC12K)2NH2)
512 µg/mL: Antibiotic MIC, None ([3]; antibiotic alone (Table 16)) | Antibiotic MIC, None ([3]; antibiotic alone (Table 17)) | Antibiotic MIC in presence of C12K(NC8K)7NH2 (SEQ ID NO: 4), +½ MIC (E. coli 16329; E. coli U-16329, polymer at ½ of its MIC) | Antibiotic MIC (S. maltophila 748; [10]) | Antibiotic MIC (S. maltophila 748; [13]) | Antibiotic MIC (S. maltophila 748; no polymer (None), Table 13)
0.125 µg/mL: Antibiotic MIC (S. aureus 43300 [4]; [9]) | Antibiotic MIC (S. aureus 43300 [4]; [12])
0.17 µg/mL: MIC (MRSA 15903; MRSA 15903, +½ polymer MIC (3.1 μM) NC12(KNC12K)2NH2) | MIC (MRSA 15903; Staphylococcus aureus, MRSA, read-out: MIC of oxacillin, MRSA 15903, + ½ MIC NC12(KNC12K)2NH2 (text))
32 to 64 µg/mL: Antibiotic MIC in presence of C12K(NC8K)7NH2 (SEQ ID NO: 4), +½ MIC [3, 5] | Antibiotic MIC in presence of the OAK, +½ MIC [3, 7]
0.5 to 1 µg/mL: Antibiotic MIC, None ([1]; antibiotic alone (Table 16)) | Antibiotic MIC, None ([1]; antibiotic alone (Table 17)) | Antibiotic MIC in presence of C12K(NC8K)7NH2 (SEQ ID NO: 4), +¼ MIC ([1]; polymer at ¼ of its MIC (Table 16)) | Antibiotic MIC (S. aureus 43300 [2]; no polymer (None), Table 8) | Antibiotic MIC (S. aureus 43300 [2]; no polymer (None), Table 10) | Antibiotic MIC (S. aureus 15819; [11])
256 µg/mL and >512 µg/mL: Antibiotic MIC (E. coli 14384)
0.34 µg/mL: MIC (MRSA 15903; MRSA 15903, +⅓ polymer MIC (2.1 μM) NC12(KNC12K)2NH2) | MIC (MRSA 15903; Staphylococcus aureus, MRSA, read-out: MIC of oxacillin, MRSA 15903, + ⅓ MIC NC12(KNC12K)2NH2 (text))
